{"source": "paper PMC7525011", "about": "“Mycobacterium tuberculosis Calcium Pump CtpF Modulates the Autophagosome in an mTOR-Dependent Manner” (Frontiers in Cellular and Infection Microbiology, 2020)", "target": "CtpF (Mycobacterium tuberculosis, UniProt P9WPS9)", "sequence (P9WPS9 whole entry)": "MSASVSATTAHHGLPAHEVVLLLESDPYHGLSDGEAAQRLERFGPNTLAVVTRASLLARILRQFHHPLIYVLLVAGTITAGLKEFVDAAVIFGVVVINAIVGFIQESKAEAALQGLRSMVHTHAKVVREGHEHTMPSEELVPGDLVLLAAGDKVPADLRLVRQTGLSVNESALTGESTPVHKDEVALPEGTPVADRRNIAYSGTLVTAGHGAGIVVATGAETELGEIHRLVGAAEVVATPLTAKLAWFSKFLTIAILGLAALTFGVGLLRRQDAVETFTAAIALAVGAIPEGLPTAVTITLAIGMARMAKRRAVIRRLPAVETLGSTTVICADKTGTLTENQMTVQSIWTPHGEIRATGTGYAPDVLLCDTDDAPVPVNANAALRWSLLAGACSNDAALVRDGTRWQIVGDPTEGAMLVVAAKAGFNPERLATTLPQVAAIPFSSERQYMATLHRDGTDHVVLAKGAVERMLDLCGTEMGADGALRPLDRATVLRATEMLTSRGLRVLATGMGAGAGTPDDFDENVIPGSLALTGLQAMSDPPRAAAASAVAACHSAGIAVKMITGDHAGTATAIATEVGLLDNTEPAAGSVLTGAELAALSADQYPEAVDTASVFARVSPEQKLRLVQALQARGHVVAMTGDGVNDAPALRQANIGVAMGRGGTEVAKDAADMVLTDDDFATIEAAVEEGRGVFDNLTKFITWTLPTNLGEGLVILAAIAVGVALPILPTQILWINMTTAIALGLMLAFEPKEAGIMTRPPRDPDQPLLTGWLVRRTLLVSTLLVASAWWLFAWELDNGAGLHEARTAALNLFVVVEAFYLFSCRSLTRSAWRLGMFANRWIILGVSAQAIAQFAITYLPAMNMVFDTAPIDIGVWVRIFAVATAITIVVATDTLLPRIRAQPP", "conditions": "with Ca2+ or Mg2+; 1 mM ATP; 60 mM Tris pH 7.4, 100 mM KCl; described as competitive inhibitor"}
{"smiles": "[O]=[V]([OH])([OH])[OH]", "note": "[sodium orthovanadate]", "values": [{"measurement": "complete inhibition of Pi release", "result": "sodium orthovanadate, a competitive inhibitor of ATPase activity was used in the reaction"}]}
